Literature values as cited in patent US5747458A, “Urokinase receptor ligands” (Chiron Corporation, priority 1995, dated 1998).

How the values were obtained:
uPA:uPAR interaction = uPA:uPAR interaction (Homo sapiens, UniProt Q03405)
uPAR = uPAR (Homo sapiens, UniProt Q03405)
Chain of uPAR (Q03405 23-335, species assumed): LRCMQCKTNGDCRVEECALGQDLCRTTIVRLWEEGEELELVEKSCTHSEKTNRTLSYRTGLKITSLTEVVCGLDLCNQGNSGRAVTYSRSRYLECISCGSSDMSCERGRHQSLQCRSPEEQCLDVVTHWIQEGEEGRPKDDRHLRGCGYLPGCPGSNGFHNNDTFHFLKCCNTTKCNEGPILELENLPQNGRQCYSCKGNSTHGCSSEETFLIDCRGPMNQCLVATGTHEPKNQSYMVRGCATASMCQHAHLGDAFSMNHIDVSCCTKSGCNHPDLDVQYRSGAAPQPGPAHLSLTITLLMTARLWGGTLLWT

Chain of uPA:uPAR interaction (Q03405 23-305 limits assumed): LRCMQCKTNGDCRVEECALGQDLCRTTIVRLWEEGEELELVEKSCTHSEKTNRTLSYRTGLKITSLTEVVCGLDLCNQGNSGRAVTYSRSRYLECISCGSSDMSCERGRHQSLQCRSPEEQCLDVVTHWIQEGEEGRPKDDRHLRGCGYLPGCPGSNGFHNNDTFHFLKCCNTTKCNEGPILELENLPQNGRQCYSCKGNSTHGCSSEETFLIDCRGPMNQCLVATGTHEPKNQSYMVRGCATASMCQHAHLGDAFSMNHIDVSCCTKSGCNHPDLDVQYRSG

Compound | effective concentration for inhibiting the uPA:uPAR interaction (uPA:uPAR interaction) | affinity relative to intact ATF (fold less) (uPAR; compared with intact ATF) | Kd (uPAR; read-out: affinity for uPAR) [µM]
O=S(=O)(O)c1cccc2cccc(Nc3ccccc3)c12 [8-anilinonaphthalene sulfonic acid] | effective only at micromolar concentrations |  | 
Cc1ccc(C(=O)Nc2ccc(S(=O)(=O)O)c3cc(S(=O)(=O)O)cc(S(=O)(=O)O)c23)cc1NC(=O)c1cccc(NC(=O)Nc2cccc(C(=O)Nc3cc(C(=O)Nc4ccc(S(=O)(=O)O)c5cc(S(=O)(=O)O)cc(S(=O)(=O)O)c45)ccc3C)c2)c1 [suramin] | effective only at micromolar concentrations |  | 
uPA12-32: critical binding domain alone, residues 12-32 of the EGF-like domain of uPA (DCLNGGTCVSNKYFSNIHWCN; UniProt P00749 32-52, looked up, fragment) |  | about 100 fold | 0.04
